{
  "source": "paper PMC7904790",
  "about": "(Nature Communications, 2021)",
  "key": {"EML4-ALK WT": {"test_system": "T1, EML4-ALK WT", "T1 construct": "EML4-ALK fusion, wild-type kinase domain, expressed in Ba/F3 cells", "experiment": "cells", "design": "CellTiter-Glo viability of Ba/F3 cells dependent on EML4-ALK, without IL-3", "settings": "Ba/F3 EML4-ALK, 72 h", "protocol": "To identify drugs that can overcome these mutations, we screened our focused 90-inhibitor library using Ba/F3 cells expressing EML4-ALK I1171N + F1174I and I1171N + L1198H. At a concentration of 50 nM, gilteritinib suppressed the viability of both wild-type (WT) and compound mutant Ba/F3 cells (Fig. 1a). Since gilteritinib has reported as multi-kinase inhibitor, we first evaluated whether the ALK inhibitory efficacy of gilteritinib is driven by on-target activity or not. As a result of western blot analysis, gilteritinib suppressed the autophosphorylation of ALK in EML4-ALK-expressing Ba/F3 cells (Fig. 1b and Supplementary Fig. 1). […] As well as Ba/F3 cell model, we verified the activity of gilteritinib to H3122 cell line that is EML4-ALK-positive NSCLC cells. […] Then, the inhibitory concentration of gilteritinib is matched between ALK phosphorylation and its downstream signals. […] Further, using the phosphoproteomics data, kinase substrate-enrichment analysis (KSEA) predicted activate kinase candidates as potential gilteritinib targets and identified ALK as the most likely regulated protein (Fig. 1e, Supplementary Figs. 3 and 4, and Supplementary Table 2). To establish Ba/F3 cells expression WT or mutant EML4-ALK, TPM3-NTRK1, and CD74-ROS1 fusion proteins, pLenti6.3 vectors containing the cDNA of these fusion oncogenes were transfected into 293FT cells using packaging plasmids (ViraPower) for lentivirus production. Ba/F3 cells were infected using lentivirus-containing medium supplemented with polybrene (8 μg/ml), and after 24 h of incubation, the infected cells were selected using 7 μg/ml blasticidin (Invitrogen) for 1 week. After selection, each EML4-ALK-, TPM3-NTRK1-, and CD74-ROS1-expressing cell line was cultured in D-10 without IL-3. […] To stablise H3122, JFCR-028-3, MCC-003 cells expression WT or mutant EML4-ALK, KRAS G12C, cells were infected using lentivirus-containing medium supplemented with polybrene (8 μg/ml). After 24 h of incubation, the infected cells were selected using 7 μg/ml blasticidin for H3122, JFCR028-3, and 10 μg/ml for MCC-003, respectively. To stablise H3122 cells expression AXL, pHAGE-AXL vector (purchased from addgene) was transfected into 293FT cells using packaging plasmids for lentivirus production. H3122 cells were infected using lentivirus-containing medium supplemented with polybrene (8 μg/ml), and after 24 h of incubation, EGFP-positive cells were sorted using FACSMelody (BD Bioscience, San Jose, CA, USA). To stablise NIH3T3 oncogene-expressing cells, cells were infected using lentivirus-containing medium supplemented with polybrene (8 μg/ml), and after 24 h of incubation, the infected cells were selected using 2 μg/ml blasticidin for 1 week."}, "in vitro": {"experiment": "in vitro", "design": "CellTiter-Glo viability of parental Ba/F3 cells with IL-3 (counter-screen)", "settings": "mouse, parental ba/f3 cells +il-3; with IL-3; read-out: IC50 parental Ba/F3 (+IL-3)", "protocol": "To identify drugs that can overcome these mutations, we screened our focused 90-inhibitor library using Ba/F3 cells expressing EML4-ALK I1171N + F1174I and I1171N + L1198H. At a concentration of 50 nM, gilteritinib suppressed the viability of both wild-type (WT) and compound mutant Ba/F3 cells (Fig. 1a). Since gilteritinib has reported as multi-kinase inhibitor, we first evaluated whether the ALK inhibitory efficacy of gilteritinib is driven by on-target activity or not. As a result of western blot analysis, gilteritinib suppressed the autophosphorylation of ALK in EML4-ALK-expressing Ba/F3 cells (Fig. 1b and Supplementary Fig. 1). […] As well as Ba/F3 cell model, we verified the activity of gilteritinib to H3122 cell line that is EML4-ALK-positive NSCLC cells. […] Then, the inhibitory concentration of gilteritinib is matched between ALK phosphorylation and its downstream signals. […] Further, using the phosphoproteomics data, kinase substrate-enrichment analysis (KSEA) predicted activate kinase candidates as potential gilteritinib targets and identified ALK as the most likely regulated protein (Fig. 1e, Supplementary Figs. 3 and 4, and Supplementary Table 2).  Fig. 1 Identification of gilteritinib as an inhibitor of ALK-rearranged cancer cells. a Relative cell viability of parental (with IL-3), EML4-ALK wild-type (WT), EML4-ALK I1171N + F1174I, and EML4-ALK I1171N + L1198H Ba/F3 cells treated with 50 nM of the indicated inhibitors. Cell viability was analyzed using the CellTiter-Glo assay and calculated relative to the viability of dimethyl sulfoxide-treated Ba/F3 cells. b The suppression of phospho-ALK in I1171N + F1174I, I1171N + L1198H mutation-expressing Ba/F3 cells was evaluated using western blotting. Cells were treated with the indicated concentrations of gilteritinib for 3 h (n = 2). c The suppression of phospho-ALK and its downstream signals in H3122 parental cells and I1171N + F1174I compound mutation-expressing cells were evaluated using western blotting. […] N = 3 independent samples examined over three independent experiments and representative experiment data are presented as mean values ± SD. e Volcano plot displaying the −log10 (p-value) versus log2 (gilteritinib treatment/DMSO treatment) for all quantified phosphopeptides. The red diamond indicates phospho-ALK."}},
  "data": [
    {"compound": "CN1CCN(c2ccc(C(=O)Nc3n[nH]c4ccc(Cc5cc(F)cc(F)c5)cc34)c(NC3CCOCC3)c2)CC1", "note": "[Entrectinib]", "values": [
      {"measurement": "IC50", "setting": "EML4-ALK WT", "result": "19 ± 10", "unit": "nM"},
      {"measurement": "CC50 at 72 h", "setting": "in vitro", "result": "481 ± 89", "unit": "nM"}
    ]},
    {"compound": "CCc1nc(C(N)=O)c(Nc2ccc(N3CCC(N4CCN(C)CC4)CC3)c(OC)c2)nc1NC1CCOCC1", "note": "[gilteritinib]", "values": [
      {"measurement": "IC50", "setting": "EML4-ALK WT", "result": "0.78 ± 0.27", "unit": "nM"},
      {"measurement": "CC50 at 72 h", "setting": "in vitro", "result": "177 ± 4.9", "unit": "nM"}
    ]},
    {"compound": "C[C@H]1Oc2cc(cnc2N)-c2c(nn(C)c2C#N)CN(C)C(=O)c2ccc(F)cc21", "note": "[lorlatinib]", "values": [
      {"measurement": "IC50", "setting": "EML4-ALK WT", "result": "[…]"},
      {"measurement": "CC50 at 72 h", "setting": "in vitro", "result": "8240 ± 2410", "unit": "nM"}
    ]}
  ]
}
